The text below walks through data of paper PMC7819857, “Identification of Inhibitors of Integrin Cytoplasmic Domain Interactions With Syk” (Frontiers in Immunology, 2021).

In the assay the target is T1, integrin β2 cytoplasmic domain : GST-Syk(6-370) (Homo sapiens, UniProt P43405).
T1 construct: made in house; host or cells: E. coli BL21(DE3)
Kind of assay: AlphaScreen of integrin β2 cytoplasmic domain binding to Syk. The settings on record: read-out: antagonist activity against β2 (value without measure name), AlphaScreen. As for the experimental part:
The following HTS assay was developed to identify antagonists of the interaction between the integrin β3 cytoplasmic domain and the non-receptor tyrosine kinase Syk. […] ( Figure 1E ). Background signals in this assay were determined by omitting the integrin β3 peptide. Specific assay conditions are described in Table 1 . […] Then, either dimethyl sulfoxide control or compound was added, followed by biotinylated β3 peptide, and avidin-coated AlphaScreen donor beads. After a 4-h incubation period at room temperature (while protected from light), assays plates were read on an Infinite M1000 (Tecan) multiplate reader (Ex. 680/30; Em. 570/100).
Figure 4 Ceftazidime inhibition of integrin signaling. (A) Dose-response curves comparing ceftazidime antagonist activity against integrin β1A, β2, and β3 cytoplasmic domains binding to Syk as measured in AlphaScreen assays. […] Data are expressed as mean fluorescence (Fl520) ± the range from duplicate determinations. One of three experiments is shown. (B) Flow cytometric analysis of integrin α4β1, β2 subunit, αVβ3, and FcγRI (CD64) on THP-1 cells. Isotype control staining is shown as light gray histograms. Specific integrin staining is shown as darker gray histograms. […] One representative blot is shown (top), along with quantification of three separate experiments normalized to maximum Syk phosphorylation (bottom). Results are expressed as the mean ± SEM.
Background: In Alpha technology, singlet oxygen from a donor bead excites a nearby acceptor bead.

Turning to `CC(C)(O/N=C(\C(=O)N[C@@H]1C(=O)N2C(C(=O)[O-])=C(C[n+]3ccccc3)CS[C@H]12)c1csc(N)n1)C(=O)O` [ceftazidime], the IC50 is 1530 ± 210 nM.
